According to patent US20200360318A1, “COMPOSITIONS AND METHODS FOR INCREASING THE POLLINATION PERFORMANCE OF BEES” (Beeflow Corporation, priority 2019, published 2020):

Assay: ABA content in fifth instar larvae of colonies fed ABA syrup
Format: in vivo, honey bees
Conditions: 10 μM ABA in sucrose syrup (2:1); fifth instar larvae (L5), two months after starting treatment
Description: ABA was added to sucrose syrup (2:1, sucrose:water) to achieve a concentration of 10 μM ABA. Two groups of small colonies of honey bees were used to test if the compound was reaching the bee larvae. One group of colonies was exposed to the solution by way of adding the solution to feed the bees in the beehive, while the other was not. In order to corroborate that the ABA supplemented in the syrup actually reached the larvae, the ABA content was measured in fifth instar larvae (L5) two months after starting treatment.

CC1=CC(=O)CC(C)(C)[C@@]1(O)/C=C/C(C)=C\C(=O)O [ABA, (2Z,4E)-5-[(1S)-1-hydroxy-2,6,6-trimethyl-4-oxocyclohex-2-en-1-yl]-3-methylpenta-2,4-dienoic acid]
concentration of ABA in larvae compared to the control colony: 28 x
